Source: article PMC9241644, “Evaluation of Novel Quorum Sensing Inhibitors Targeting Auto-Inducer 2 (AI-2) for the Control of Avian Pathogenic Escherichia coli Infections in Chickens” (Microbiology Spectrum, 2022)

Key:
Rif^R APEC O78 [1] = assay: Efficacy of QSIs in APEC-infected chickens (oral gavage pilot); format: in vivo, Escherichia coli; details: for Average lesion severity, Lung / Average lesion severity, Liver / Average lesion severity, Airsac / Average lesion severity, Heart / Mortality rate % (Nr.) / Average APEC load, Liver / Average APEC load, Heart / Average APEC load, Kidney / Average APEC load, Lung: Table S1, oral gavage pilot; for Average lesion severity, Lung / Average lesion severity, Liver / Average lesion severity, Airsac / Average lesion severity, Heart: lesion score; for Average lesion severity, Lung: PC 1.25; for Average lesion severity, Liver: PC 1.75; for Average lesion severity, Airsac: PC 2.00; for Average lesion severity, Heart: PC 2.25; for Mortality rate % (Nr.): n = 6/group, 8 DPI, PC 66.6 (4/6); for Average APEC load, Liver: PC 5.95; for Average APEC load, Heart: PC 5.98; for Average APEC load, Kidney: PC 6.81; for Average APEC load, Lung: PC 6.83; for reduction in mortality compared with the PC group / average APEC load reduction in the internal organs (liver, heart, lung, kidney) compared with PC: chickens, QSI oral gavage once daily 5 days, s/c APEC O78 1 × 10^7 CFU/bird; for reduction in mortality compared with the PC group: PC mortality normalized to 100%; for average APEC load reduction in the internal organs (liver, heart, lung, kidney) compared with PC: range over organs
Description: The chicken experiment was carried out using 1-day-old broiler chickens (Mayer Hatchery, OH, USA). Feed and water were given ad libitum. Chickens (n = 6/group) were administered with the QSIs (QSI-1, QSI-2, QSI-5 − 8, QSI-10, ChemBridge, San Diego, CA); previously designated as C1, C2, C5, C6, C7, C8, C10 ([17]) using oral gavage. These compounds were selected based on their high efficacy in in vitro studies and the doses correspond to 30X of the initial in vitro screening concentration ([17]). The QSIs were suspended in dimethyl sulfoxide (DMSO; used as a vehicle) and administered once daily for 5 successive days (starting from day 4 to day 8). The first dose was administered 1 day before the challenge, followed by the second dose on the challenge day (2 h before challenge), followed by three additional doses on subsequent days. Feeders were removed 1 h prior to the treatment and replaced 1 h after the treatment. Chickens were challenged subcutaneously (s/c) on day 5 with Rif^R APEC O78 (1 × 10^7 CFU/bird) in PBS using syringe (27 gauge, 0.5 in.). The challenge dose, which […], was chosen based on preliminary experiments conducted with different infection routes (subcutaneous s/c, intra-tracheal and intra-airsacs) and different doses (10^6, 10^7, and 10^8 CFU/chicken). […] Therefore, we selected this challenge dose and route for evaluation of QSIs in chickens ([34]). The positive (PC; infected with APEC O78 and DMSO treated) and negative (NC; non-infected and non-treated) control groups were included.
(§1) Chickens were monitored for clinical signs for 8 DPI. Any chickens moribund during this period were humanely euthanized and necropsied to determine bacterial load in the internal organs (liver, heart, lung, and kidney). Internal organs were aseptically collected, weighed and suspended in 1× PBS, the amount of PBS added was adjusted based on the organ size to make a suspension, the organ size and amount of PBS added were included in the final calculation of the CFU. The samples were homogenized, serially diluted 10-fold, plated on MacConkey agar (Remel, CA, USA) containing 50 μg/mL rifampicin, and incubated at 37°C for 24 h to determine the CFU/g. Pathological lesions severity in internal organs (pericarditis, perihepatitis, airsacculitis, and lung congestion) was scored as described previously ([21], [59]). At 8 DPI, the remaining chickens were humanely euthanized and necropsied, lesions were scored, and the APEC load was quantified in internal organs as described above.

Rif^R APEC O78 [2] = assay: Comparative efficacy of QSI-5 and SDM in field simulated conditions (built-up floor litter); format: in vivo, Escherichia coli
Source text: as §1
To compare the efficacy of QSI-5 with an antibiotic SDM currently used in the field, chickens (n = 70) were raised on built-up floor litter in a field-simulated conditions. One-day-old broiler chickens (Case Farms Ohio Hatchery, OH, USA) were used for conducting the experiment. The optimized dose of QSI-5 (1 mg/L) and the therapeutic dose of SDM (495.323 mg/L) (0.05%) were given in drinking water daily for 7 days (starting from day 5 to day 11 of age). The volume of drinking water needed daily was determined as described above. On day 6, the chickens were infected s/c with Rif^r APEC O78 (5 × 10^6 CFU/chicken, s/c). PC (0.05% DMSO treated and infected) and NC (non-infected and non-treated) control groups were included. The mortality was recorded daily until the end of the experiment (42 days of age: slaughter age). At 8 DPI, half of the chickens from each group were necropsied, lesions were scored, and the APEC load was quantified in the internal organs as described above. The other half of the chickens were raised until day 42 to determine the impact of treatment on the body weight gain and feed intake. To calculate the FCR, body weight was measured once every week and feed intake was recorded every day. On day 42, the remaining chickens were euthanized, body weight was measured and 10 chickens from each group were randomly selected and necropsied, lesions and APEC load were assessed in the internal organs.

[3] = QSI-5 and SDM residue quantification in muscle, kidney and liver (LC-MS); format: in vivo, chickens; details: in vivo
Description: The safety of QSI-5 and SDM was assessed by measuring the level of drug residue in the muscle, kidney, and liver using LC-MS (CCIC, MS&P Facility, OSU) as described before ([34]). As described above, chickens were administered with the optimized dose of QSI-5 (1 mg/L) and the therapeutic dose of SDM (495.323 mg/L) (0.05%) in drinking water daily for 7 days (starting from day 5 to day 11 of age). Tissue samples were collected individually from chickens treated with QSI-5 and SDM (five chickens per group) from experimental set up as described for floor trial at 2 DPLT, 5 DPLT, and […] (slaughter age). All samples were weighed and extracted at a 400 mg/mL ratio of tissue in the extraction solution (50:50 H2O: ACN). Samples were homogenized using a probe sonicator 20 times and centrifuged at 13,000 × g for 30 min. Sixty μL of the supernatant was transferred into glass vials and dried in a SpeedVac for 1.5 h, and then resuspended in 120 μL of 25:25:50 H2O:ACN:MeOH. Standard calibration, LC system, mass spectrometer, and drug target monitoring were performed as described above. Calibration standard curves for measuring the accumulation of QSI-5 and SDM in the kidney, liver, and muscle are shown in Fig. S6A and S6B.

## COCCN1CCC(CN(Cc2cccnc2)Cc2ccccc2Cl)CC1 [QSI-1]
Rif^R APEC O78 [1]
  Average lesion severity, Lung: 0.50
  Average lesion severity, Liver: 2.17
  Average lesion severity, Airsac: 1.83
  Average lesion severity, Heart: 3.00
  Mortality rate % (Nr.): 50%
  Average APEC load, Liver: 5.30 Log CFU/g of tissue
  Average APEC load, Heart: 5.63 Log CFU/g of tissue
  Average APEC load, Kidney: 6.28 Log CFU/g of tissue
  Average APEC load, Lung: 5.92 Log CFU/g of tissue
  reduction in mortality compared with the PC group: 25%
  average APEC load reduction in the internal organs (liver, heart, lung, kidney) compared with PC: did not reduce the APEC load

## Cc1ccccc1N1CCN(C2CCCN(C(=O)c3ccc(F)c(Cl)c3)C2)CC1 (stereo not drawn) [QSI-2]
Rif^R APEC O78 [1]
  Average lesion severity, Lung: 0.17
  Average lesion severity, Liver: 1.00
  Average lesion severity, Airsac: 0.92
  Average lesion severity, Heart: 1.67
  Mortality rate % (Nr.): 33.3%
  Average APEC load, Liver: 4.20 Log CFU/g of tissue
  Average APEC load, Heart: 4.87 Log CFU/g of tissue
  Average APEC load, Kidney: 5.07 Log CFU/g of tissue
  Average APEC load, Lung: 5.15 Log CFU/g of tissue
  reduction in mortality compared with the PC group: 50%

## O=[N+]([O-])c1cccc(S(=O)(=O)Nc2ccc(Br)cc2)c1 [QSI-6]
Rif^R APEC O78 [1]
  Average lesion severity, Lung: 0.50
  Average lesion severity, Liver: 0.83
  Average lesion severity, Airsac: 1.17
  Average lesion severity, Heart: 1.50
  Mortality rate % (Nr.): 66.6%
  Average APEC load, Liver: 4.62 Log CFU/g of tissue
  Average APEC load, Heart: 4.87 Log CFU/g of tissue
  Average APEC load, Kidney: 5.35 Log CFU/g of tissue
  Average APEC load, Lung: 5.17 Log CFU/g of tissue
  reduction in mortality compared with the PC group: did not reduce mortality

## O=C(CCN1CCN(c2ccccc2F)CC1)Nc1ccc(Br)cc1 [QSI-7]
Rif^R APEC O78 [1]
  Average lesion severity, Lung: 0.17
  Average lesion severity, Liver: 1.33
  Average lesion severity, Airsac: 1.00
  Average lesion severity, Heart: 1.33
  Mortality rate % (Nr.): 66.6%
  Average APEC load, Liver: 5.95 Log CFU/g of tissue
  Average APEC load, Heart: 6.13 Log CFU/g of tissue
  Average APEC load, Kidney: 6.13 Log CFU/g of tissue
  Average APEC load, Lung: 6.10 Log CFU/g of tissue
  reduction in mortality compared with the PC group: did not reduce mortality
  average APEC load reduction in the internal organs (liver, heart, lung, kidney) compared with PC: did not reduce the APEC load

## CCc1ccccc1NC1NC(c2c(C)nc3ccccn23)=CS1 (stereo not drawn) [QSI-8]
Rif^R APEC O78 [1]
  Average lesion severity, Lung: 0.17
  Average lesion severity, Liver: 0.50
  Average lesion severity, Airsac: 0.50
  Average lesion severity, Heart: 0.50
  Mortality rate % (Nr.): 33.3%
  Average APEC load, Liver: 3.48 Log CFU/g of tissue
  Average APEC load, Heart: 3.60 Log CFU/g of tissue
  Average APEC load, Kidney: 3.65 Log CFU/g of tissue
  Average APEC load, Lung: 4.60 Log CFU/g of tissue
  reduction in mortality compared with the PC group: 50%

## OCCC1CN(C2CCN(c3ccccc3)CC2)CCN1CCCc1ccccc1 (stereo not drawn) [QSI-10]
Rif^R APEC O78 [1]
  Average lesion severity, Lung: 0.00
  Average lesion severity, Liver: 0.00
  Average lesion severity, Airsac: 0.17
  Average lesion severity, Heart: 0.33
  Mortality rate % (Nr.): 16.6%
  Average APEC load, Liver: 2.50 Log CFU/g of tissue
  Average APEC load, Heart: 2.50 Log CFU/g of tissue
  Average APEC load, Kidney: 2.47 Log CFU/g of tissue
  Average APEC load, Lung: 3.08 Log CFU/g of tissue

## COc1cc(NS(=O)(=O)c2ccc(N)cc2)nc(OC)n1 [SDM, sulfadimethoxine]
Rif^R APEC O78 [2]; Table S3, PC 1.85
  Average lesion severity, Lung: 1.17
Rif^R APEC O78 [2]; Table S3, PC 2.52
  Average lesion severity, Liver: 2.03
Rif^R APEC O78 [2]; Table S3, PC 3.36
  Average lesion severity, Airsac: 2.50
Rif^R APEC O78 [2]; Table S3, PC 3.58
  Average lesion severity, Heart: 2.83
Rif^R APEC O78 [2]; Table S3, PC 7.24
  Average APEC load, Liver: 5.05 Log CFU/ g of tissue
Rif^R APEC O78 [2]; Table S3, PC 7.68
  Average APEC load, Lung: 6.17 Log CFU/ g of tissue
Rif^R APEC O78 [2]; Table S3, PC 7.73
  Average APEC load, Kidney: 5.33 Log CFU/ g of tissue
Rif^R APEC O78 [2]; Table S3, PC 7.92
  Average APEC load, Heart: 5.69 Log CFU/ g of tissue
Rif^R APEC O78 [2]; Table S3, until 42 days of age, QSI-5 (8/63), SDM (19/65), PC 45.6 (31/68)
  Mortality rate % (Nr.): 29.2%
Rif^R APEC O78 [2]; built-up floor litter, QSI-5 1 mg/L, SDM 495.3 mg/L (0.05%) in drinking water 7 days, s/c APEC O78 5 × 10^6 CFU/chicken
  reduction in mortality compared with the PC group: 35.9%
[3]; broiler, chicken, 35 DPLT
  Drug accumulation, Liver (ppm± SD): 0.0 ± 0.0 ppm
  Drug accumulation, Muscle (ppm± SD): 0.0 ± 0.0 ppm
[3]; commercial broiler, chicken, 35 DPLT
  Drug accumulation, Kidney (ppm± SD): 0.0 ± 0.0 ppm
[3]
  residue in any tissues: no detectable residues
